# Assay results reported in publication PMC7653765 (BMC Complementary Medicine and Therapies, 2020).
# Read-outs that look alike come from different tables or passages of the source.
# System: 3 T3-L1 adipocytes
# Experiment: Adipocyte glucose uptake test
# Format: cell-based, mouse
# Procedure: The 3 T3-L1 mouse embryonic fibroblasts were cultured for induction of adipogenesis, and […] 3 T3-L1 adipocytes were plated for glucose uptake. Krebs-Ringer-Phosphate-HEPES (KRPH) buffer was used to prepare 10-point 3-fold gradient diluted samples. After starvation, the adipocytes were rinsed with KRPH buffer. Ninety μL of gradient-diluted samples of different concentrations were added to each well with high- and low-signal control wells and incubated in a CO2 incubator for 30 min. Add 10 μL/well of KRPH buffer containing 0.25 μCi1- [3H] -deoxyglucose and 50 μM 2-deoxyglucose and incubate in a CO2 incubator for 20 min. Wash the cells with DPBS containing 10 mM glucose at 4 °C. Lysate fat cells with sodium hydroxide solution, transfer to scintillation tube, add scintillation fluid, and count with TriCarb.
# [1] = mean ± SEM of 3 repeats, read-out: EC50, fat cell glucose uptake, Mean ± SEM
# [2] = read-out: EC50, fat cell glucose uptake, N = 1, replicate N = 1, 3 T3-L1 adipocytes, 30 min sample, 20 min [3H]-deoxyglucose
# [3] = read-out: EC50, fat cell glucose uptake, N = 2, replicate N = 2
# [4] = read-out: EC50, fat cell glucose uptake, N = 3, replicate N = 3
Substance,EC50 [1] [nM],EC50 [2] [nM],EC50 [3] [nM],EC50 [4] [nM]
"H-Insulin: recombinant human insulin injection obtained from Lilly, a regular insulin",1.8 ± 0.2,0.9,1.7,2.2
"S-Insulin: recombinant human-derived insulin from Sigma, a regular insulin, standard control",3.7 ± 0.5,2.5,5.3,3
